Source: PMC12540682, “Purification and biochemical characterization of L-glutaminase from Aspergillus oryzae with potential biotechnological applications in synthesis of L-theanine and as antitumor agent” (Scientific Reports, 2025)
Blank lines part the entries; values can stand above or below the compound they belong to.

Assays:
[1] = target: T1, L-glutaminase (Glut) from Aspergillus oryzae EG-RE9; assay: residual activity after preincubation, ammonia release (Nessler); format: biochemical; details: 0.1 M phosphate pH 7.0, 20 min preincubation at 37 °C, covalent
T1 construct: gene gtaA; native extracellular enzyme purified from culture filtrate (ammonium sulfate, DEAE-cellulose, Sephadex G-200); 65 kDa by SDS-PAGE
Description: residual activity after preincubation, ammonia release (Nessler) on L-glutaminase (Glut) from Aspergillus oryzae EG-RE9 | The IC50 of BD, NBS, DEPC, and NEM for A. oryzae L-glutaminase were […]

[2] = system: T1, L-glutaminase (Glut) from Aspergillus oryzae EG-RE9; assay: ammonia release (Nessler), Lineweaver-Burk; format: biochemical; details: pH 7.0, 35 °C, 1 h; L-glutamine 0.25-12 mM

Structure (SMILES): CCN1C(=O)C=CC1=O [N-ethylmaleimide]
IC50 ([1]; group-specific modifier of Cys): 4.8 mM

Structure (SMILES): O=C1CCC(=O)N1Br [N-bromosuccinimide]
IC50 ([1]; group-specific modifier of Trp): 5.7 mM

Second part, the compound after the results:

IC50 ([1]; group-specific modifier of Arg): 6.6 mM
Structure (SMILES): CC(=O)C(C)=O [butanedione]

Km [2]: 1400 µM
Structure (SMILES): NC(=O)CC[C@H](N)C(=O)O [L-glutamine]

IC50 ([1]; group-specific modifier of His): 7 mM
Structure (SMILES): CCOC(=O)OC(=O)OCC [diethyl pyrocarbonate]
